US20240376176A1 (priority 2021, published 2024)
Counter-ions that a name gives are not always drawn.

Key:
[1] = system: sciatic nerves and adjacent tissues; conditions: rat, in vivo
[2] = target: natural sodium channel proteins; conditions: cited from earlier work
sciatic nerve = conditions: rat, in vivo

| Structure (SMILES) | Inflammation Score (range) Day 4 [1] | Inflammation Score (range) Day 14 [1] | Myotoxicity Score (range) Day 4 [1] | Myotoxicity Score (range) Day 14 [1] | Kd [2] | Duration of nerve block (sciatic nerve) |
| --- | --- | --- | --- | --- | --- | --- |
| NC1=N[C@H](O)[C@H]2[C@H]3O[C@]4(O)O[C@@H]([C@@H](O)[C@@]2(N1)[C@@H]4O)[C@]3(O)CO [Free TTX, tetrodotoxin] | 0.5 | 0 (0-1.0) | 0 (0-1.0) | 0 (0-1.0) | ~1.3 nM | – |
| CCCCN1CCCCC1C(=O)Nc1c(C)cccc1C (stereo not drawn) [Free Bup, bupivacaine hydrochloride] | – | – | – | – | – | 2.4 ± 0.3 h |
